Results as given in patent US20080255206A1, “Rxr Agonists and Antagonists, Alone or in Combination with Ppar Ligands, in the Treatment of Metabolic and Cardiovascular Diseases” (priority 2005, published 2008).
Like-named read-outs stand apart in the source and are kept apart here.

How the values were obtained:
rats = assay: 4-weeks toxicology study in rats, oral gavage; type: in vivo
Description: […]. […] This symptom of hair loss is observed, dose-dependently, with all doses. Clinical pathology is limited to minor disturbances.

[1] = Pharmacokinetics, single dose administration; type: in vivo; conditions: plasma; for concentration at 1 h: po, microsuspension in oil, read-out: Plasma level one hour after oral administration
Method: Single dose administration: Compound 15 is administered orally as a microsuspension in oil. When measured one hour after oral administration, plasma levels are 480 ng/ml with 20 mg/kg and 2755 ng/ml with 100 mg/kg. There is a dose proportional increase in plasma levels of compound 15 within this dose range.

[2] = test system: myeloperoxidase (MPO) activity; assay: Semi chronic inflammation of mouse ears, MPO activity; type: in vivo, C57BL/6 mice; conditions: 11 d
Method: […] mice of the C57BL/6 strain are used. Inflammation is induced on mouse ears with either AtRA, 9-cis RA or TPA by topical application. Inflammation is measured objectively by determination of the activity of myeloperoxidase (MPO) being directly correlated to the infiltration of polymorphonuclear white blood cells and by the determination of mRNA expression of c-jun, a protein implicated in the AP-1 transduction pathway according to known methods, see e.g. P. L. Stanley et al., Skin Pharmacol. 4, 262-271 (1991) (MPO assay), N. Basset-Sequin et al., J. Invest. Dermatol. 94, 418-422 (1990), F. J. Rauscher et al., Cell 52, 471-480 […], P. Sassone-Corn et al., Nature 326, 507-510 (1987), and M. Pfahl, Endocr. Rev. 14, 651-658, 1993, which are incorporated by reference regarding the experimental method.
In the “acute inflammation” test, mice are treated topically (epicutaneously), orally or intraperitoneally, daily for 4 days. In the “semi chronic inflammation” test, mice are treated topically according to the schedules given below. For each experiment, a group of at least 4 mice of both sexes are used in the defined condition, regarding placebo, vehicle control, compound, topical formulation, oral formulation, dosage and concentration. The topical vehicle consists of ethanol/PEG 400/water (3:1:1).
The anti-inflammatory effect of topical RXR antagonists is tested by determination of myeloperoxidase activity in % of vehicle controls. The effect of the RXR antagonist compound 15 is also compared with the well known anti-inflammatory effect of the two corticosteroids, clobetasol dipropionate and betamethasone propionate. For induction of inflammation, AtRA and TPA are applied topically to the skin and the administration of the test compounds, the RXR antagonist compound 15 and the two corticosteroids are given in the following order, according to the schedule, described in: Skin Pharmacol 1991; 4 (4): 262-271, Stanley P L. et.al.: RA or TPA is administered on days 0, 2, 4, 7 and 9, compound 15 or corticosteroids are administered twice daily on day 7, day 8 and day 9 and once on day 10 in the morning. The mice are sacrificed on day 10 in the afternoon.

normal skin of mice = assay: Effect on normal, non-inflamed skin of mice; type: in vivo, C57BL/6 mice
Method: The effect of the RXR antagonist compound 15 on normal skin of mice is investigated. The ears of C57BL/6 mice are treated epicutaneously (topically) for 4 consecutive days with compound 15 in a concentration of 0.05% and 2.5% in acetone/ethanol (1:1, v/v). Comparison with vehicle control. Skin reactions, in particular inflammation, erythema, desquamation, and edema, are observed daily. Myeloperoxidase (MPO) activity is determined. The activity of MPO is considered the most sensitive criterium for the assessment of inflammation of the skin (see above, Examples 6 and 7).

[3] = test system: skin inflammation induced by Candidin or UV-B; assay: Clinical phase I trial, skin inflammation induced by candidin or UV-B irradiation; type: in vivo, human
Method: Four healthy volunteers participate. Inclusion criteria are: Age above 18 years, male or female. They are informed, with written letter of consent. Exclusion criteria are: Preexistant dermatological diseases, known allergy to test agents.
Inflammation inducing agents: Candidin is administered intradermally (see also D. Poffet, Comparaison entre le pouvoir vaso-constricteur d'un corticoide topique et l'inhibition de la dermite à la candidine après intradermorèaction (IDR). Thèse, Universitè de Genève, 1984). UV-B rays are administered by a UV-B lamp.
Inflammation is measured quantitatively. The area of the inflamed skin is measured in cm^2. The thickness of the skin is monitored by Ultrasound at 20 MHz. Erythema is measured by colorimetric determination employing a Minolta CR 20. […]
All determinations are recorded on a scale from 0 to 4: • 0=no reduction • 1=slight reduction (10 to 20%) • 2=moderate reduction (21 to 40%) • 3=marked reduction (41 to 70%) • 4=very marked reduction (71 to 100%) • Compared to vehicle control.

## CCCCOc1c(\C(C)=C/C=C/C(C)=C/C(=O)O)cc(C(C)(C)C)cc1C(C)(C)C [Compound 15, (2E,4E,6Z)-7-[2-butoxy-3,5-bis(1,1-dimethylethyl)phenyl]-3-methyl-2,4,6-octatrienoic acid]
rats; 4 weeks oral gavage
  Haematology and clinical chemistry: No abnormalities in haematology, no abnormalities in clinical chemistry
  Histopathology: only some changes in the 500/750 mg/kg dose group
  Transaminases, triglycerides and cholesterol: No increase in transaminases, triglycerides, and cholesterol
rats; daily doses of 50, 250, 500, eventually 750 mg/kg, 4 weeks
  Tolerability, oral: well tolerated with the exception of patchy alopecia
[1]; single dose 20 mg/kg
  concentration at 1 h: 480 ng/mL
[1]; single dose 100 mg/kg
  concentration at 1 h: 2760 ng/mL
[1]; at the mentioned low doses, intravenous versus oral PK data
  bioavailability: 40%
[2]; At RA 0.05% + test compound 0.05% topical
  MPO activity (% vehicle treated mice): 184 ± 72 % vehicle treated mice
[2]; TPA 0.005% + test compound 0.05% topical
  MPO activity (% vehicle treated mice): 345 ± 81 % vehicle treated mice
Normal skin of mice; epicutaneous 0.05% and 2.5%, 4 consecutive days
  Clinical signs or symptoms of skin inflammation on normal skin: does not induce clinical signs or symptoms of a skin inflammation
Normal skin of mice; normal skin, 0.05%
  MPO activity compared to the vehicle control (in words): no significant change
Normal skin of mice; normal skin, 2.5%
  MPO activity, % of that of the vehicle control: 57%
[3]; 4 healthy volunteers, topical, candidin or UV-B induced
  Reduction of the inflammatory reaction compared to vehicle control: very marked
[3]; topical lotion 1%
  Anti-inflammatory effect compared with corticosteroids or macrolides: even superior to that of corticosteroids or macrolides
